Data published in the supplement of paper PMC10307832.

Tests used:
Test in all cases: relative viability (nuclei count vs DMSO), 5 days (fraction); higher = more cells survive
Bexarotene + Linsitinib = compound: C=C(c1ccc(C(=O)O)cc1)c1cc2c(cc1C)C(C)(C)CCC2(C)C [Bexarotene] + C[C@]1(O)C[C@@H](c2nc(-c3ccc4ccc(-c5ccccc5)nc4c3)c3c(N)nccn32)C1 [Linsitinib] (partner 1 µM)
Summary of the method: (§1)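 Lung cancer cell lines were pin-tool dosed in 1536-well plates on the day after seeding, with either a lone drug or a fixed anchor-drug dose plus five library-drug doses (not always all listed) in √10 steps. Nuclei were counted on 4× images after 5 days. Relative viability is the ratio of treated-well to vehicle-well nuclei counts, with each value a median of duplicate plates.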

Bexarotene + Navitoclax = compound: C=C(c1ccc(C(=O)O)cc1)c1cc2c(cc1C)C(C)(C)CCC2(C)C [Bexarotene] + CC1(C)CCC(c2ccc(Cl)cc2)=C(CN2CCN(c3ccc(C(=O)NS(=O)(=O)c4ccc(N[C@H](CCN5CCOCC5)CSc5ccccc5)c(S(=O)(=O)C(F)(F)F)c4)cc3)CC2)C1 [Navitoclax] (partner 0.5 µM)
Summary of the method: as §1

Bexarotene + Vorinostat = compound: C=C(c1ccc(C(=O)O)cc1)c1cc2c(cc1C)C(C)(C)CCC2(C)C [Bexarotene] + O=C(CCCCCCC(=O)Nc1ccccc1)NO [Vorinostat] (partner 1 µM)
Summary of the method: as §1

Bexarotene + Alpelisib = compound: C=C(c1ccc(C(=O)O)cc1)c1cc2c(cc1C)C(C)(C)CCC2(C)C [Bexarotene] + Cc1nc(NC(=O)N2CCC[C@H]2C(N)=O)sc1-c1ccnc(C(C)(C)C(F)(F)F)c1 [Alpelisib] (partner 2 µM)
Summary of the method: as §1

Row | Cell Line | relative viability (Bexarotene + Linsitinib; first compound 0.08 µM) | relative viability (Bexarotene + Linsitinib; first compound 0.253 µM) | relative viability (Bexarotene + Linsitinib; first compound 0.8 µM) | relative viability (Bexarotene + Linsitinib; first compound 2.53 µM) | relative viability (Bexarotene + Linsitinib; first compound 8 µM) | relative viability (Bexarotene + Navitoclax; first compound 0.08 µM) | relative viability (Bexarotene + Navitoclax; first compound 0.253 µM) | relative viability (Bexarotene + Navitoclax; first compound 0.8 µM) | relative viability (Bexarotene + Navitoclax; first compound 2.53 µM) | relative viability (Bexarotene + Navitoclax; first compound 8 µM) | relative viability (Bexarotene + Vorinostat; first compound 0.08 µM) | relative viability (Bexarotene + Vorinostat; first compound 0.253 µM) | relative viability (Bexarotene + Vorinostat; first compound 0.8 µM) | relative viability (Bexarotene + Vorinostat; first compound 2.53 µM) | relative viability (Bexarotene + Vorinostat; first compound 8 µM) | relative viability (Bexarotene + Alpelisib; first compound 0.08 µM) | relative viability (Bexarotene + Alpelisib; first compound 0.253 µM) | relative viability (Bexarotene + Alpelisib; first compound 0.8 µM) | relative viability (Bexarotene + Alpelisib; first compound 2.53 µM) | relative viability (Bexarotene + Alpelisib; first compound 8 µM)
1 | NCI-H596 | 1.12 | 0.966 | 0.838 | 0.981 | 1.06 | 1.02 | 0.85 | 0.707 | 0.973 | 0.829 | 0.655 | 0.69 | 0.414 | 0.533 | 0.602 | 0.581 | 0.6 | 0.479 | 0.668 | 0.565
2 | NCI-H1793 | 1.08 | 0.959 | 1.03 | 0.914 | 0.897 | 0.351 | 0.556 | 0.332 | 0.35 | 0.464 | 0.666 | 0.784 | 0.611 | 0.604 | 0.601 | 0.956 | 0.81 | 0.81 | 0.727 | 0.824
3 | NCI-H1395 | 1.15 | 1.08 | 1.23 | 1.07 | 1.11 | 1.19 | 1.11 | 1.05 | 1.07 | 1.1 | 0.963 | 0.775 | 0.723 | 0.49 | 0.73 | 1.18 | 1.06 | 0.93 | 1.03 | 1.08
4 | HCC-827 | 1.01 | 0.966 | 0.896 | 0.906 | 0.854 | 1.06 | 1.05 | 0.97 | 0.975 | 0.868 | 0.906 | 0.674 | 0.775 | 0.781 | 0.821 | 1.05 | 0.844 | 0.969 | 1.04 | 0.917
5 | NCI-H2228 | 0.905 | 0.818 | 0.586 | 0.656 | 0.749 | 0.822 | 0.71 | 0.455 | 0.931 | 0.721 | 0.784 | 0.691 | 0.787 | 0.665 | 0.887 | 0.669 | 0.722 | 0.609 | 0.629 | 0.499
6 | EMC-BAC-2 | 0.873 | 0.813 | 0.75 | 0.804 | 0.811 | 1.26 | 1.27 | 1.09 | 1.31 | 1.15 | 0.628 | 0.462 | 0.537 | – | 0.522 | 0.748 | 0.735 | 0.705 | 0.73 | 0.719
7 | NCI-H23 | 0.737 | 0.673 | 0.533 | 0.638 | 0.654 | 1.01 | 0.96 | 0.853 | 0.923 | 0.729 | 0.715 | 0.782 | 0.599 | 0.453 | 0.541 | 0.812 | 0.782 | 0.551 | 0.829 | 0.656
8 | RERF-LC-KJ | 0.8 | 0.827 | 0.755 | 0.782 | 0.83 | 1.07 | 0.934 | 1.08 | 1 | 0.92 | 0.689 | 0.707 | 0.641 | 0.7 | 0.609 | 0.712 | 0.784 | 0.723 | 0.715 | 0.77
9 | LC-2-ad | 0.88 | 0.94 | 0.742 | 0.786 | 0.881 | 0.576 | 0.485 | 0.432 | 0.368 | 0.284 | 0.82 | 0.845 | 0.744 | 0.703 | 0.665 | 0.872 | 1.15 | 0.762 | 0.96 | 0.861
10 | HCC-15 | 0.957 | 0.932 | 0.678 | 0.787 | 0.772 | 0.726 | 0.793 | 0.703 | 0.617 | 0.602 | 0.877 | 0.892 | 0.823 | 0.889 | 0.81 | 0.91 | 0.849 | 0.845 | 0.816 | 0.788
11 | NCI-H2405 | 1.1 | 0.946 | 0.695 | 0.973 | 0.912 | 0.999 | 0.814 | 0.753 | 0.926 | 0.786 | 1.06 | 1.01 | 0.839 | 0.755 | 0.951 | 0.935 | 0.915 | 0.52 | 0.806 | 0.864
12 | LXF-289 | 1.06 | 1.11 | 1.04 | 1.11 | 1.01 | 1.11 | 1.09 | 1.08 | 1.1 | 0.974 | 0.906 | 0.907 | 0.861 | 0.789 | 0.935 | 1.04 | 1.1 | 1.06 | 1.04 | 0.983
13 | CAL-12T | 0.682 | 0.894 | 0.727 | 0.707 | 0.656 | 1.14 | 1.26 | 1.39 | 1.13 | 1.02 | 0.723 | 0.837 | 0.887 | 0.529 | 0.655 | 1.29 | 1.3 | 1.33 | 1.17 | 0.94
14 | COR-L23 | 0.936 | 0.984 | 0.641 | 0.737 | 0.762 | 0.98 | 1.12 | 0.847 | 0.916 | 0.879 | 0.54 | 0.539 | 0.411 | 0.426 | 0.337 | 0.872 | 0.768 | 0.555 | 0.685 | 0.757
15 | NCI-H1755 | 1.05 | 1.1 | 1.08 | 0.992 | 1.02 | 1.04 | 1.05 | 1.02 | 0.993 | 0.993 | 0.85 | 0.991 | 0.815 | 0.652 | 0.662 | 0.917 | 1.05 | 0.94 | 0.876 | 0.917
16 | NCI-H1437 | 1.01 | 1.09 | 0.93 | 1 | 0.898 | 1.08 | 1.15 | 1.06 | 1.07 | 0.953 | 0.814 | 1.01 | 0.886 | 0.872 | 0.84 | 1.02 | 1.06 | 0.946 | 1.11 | 0.829
